Experimental data reported in the supplement of paper PMC10307832.

Key:
Assay in all cases: relative viability (nuclei count vs DMSO), 5 days (fraction); higher = more cells survive
[1] = compound: CN1C=C(C2=CC=CC=C21)/C=C\3/C4=C(C=CC=N4)NC3=O + NC(=O)Nc1cc(-c2cccc(F)c2)sc1C(=O)N[C@H]1CCCNC1 [AZD7762] (partner 0.2 µM)
Method in brief: (§1)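 Medians of duplicate plates are given as relative viability. That measure is the nuclei count in treated wells divided by the count in vehicle wells. Counts were taken on 4× images of lung cancer cell lines in 1536-well plates, 5 days after pin-tool dosing the day after seeding with one drug alone or a fixed anchor-drug dose plus five library-drug doses (not always all listed) in √10 steps.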

Trametinib + Pictilisib = compound: CC(=O)Nc1cccc(-n2c(=O)n(C3CC3)c(=O)c3c(Nc4ccc(I)cc4F)n(C)c(=O)c(C)c32)c1 [Trametinib] + CS(=O)(=O)N1CCN(Cc2cc3nc(-c4cccc5[nH]ncc45)nc(N4CCOCC4)c3s2)CC1 [Pictilisib] (partner 1 µM)
Method in brief: as §1

[2] = compound: CN1C=C(C2=CC=CC=C21)/C=C\3/C4=C(C=CC=N4)NC3=O + C[C@@H](Oc1cc(-c2cnn(C3CCNCC3)c2)cnc1N)c1c(Cl)ccc(F)c1Cl [Crizotinib] (partner 1 µM)
Method in brief: as §1

[3] = compound: CN1C=C(C2=CC=CC=C21)/C=C\3/C4=C(C=CC=N4)NC3=O + CC1(C)CCC(c2ccc(Cl)cc2)=C(CN2CCN(c3ccc(C(=O)NS(=O)(=O)c4ccc(N[C@H](CCN5CCOCC5)CSc5ccccc5)c(S(=O)(=O)C(F)(F)F)c4)cc3)CC2)C1 [Navitoclax] (partner 0.5 µM)
Method in brief: as §1

| Cell Line | relative viability ([1]; first compound 0.02 µM) | relative viability ([1]; first compound 0.06325 µM) | relative viability ([1]; first compound 0.2 µM) | relative viability ([1]; first compound 0.6325 µM) | relative viability ([1]; first compound 2 µM) | relative viability (Trametinib + Pictilisib; first compound 0.0025 µM) | relative viability (Trametinib + Pictilisib; first compound 0.007906 µM) | relative viability (Trametinib + Pictilisib; first compound 0.025 µM) | relative viability (Trametinib + Pictilisib; first compound 0.07906 µM) | relative viability (Trametinib + Pictilisib; first compound 0.25 µM) | relative viability ([2]; first compound 0.02 µM) | relative viability ([2]; first compound 0.06325 µM) | relative viability ([2]; first compound 0.2 µM) | relative viability ([2]; first compound 0.6325 µM) | relative viability ([2]; first compound 2 µM) | relative viability ([3]; first compound 0.02 µM) | relative viability ([3]; first compound 0.06325 µM) | relative viability ([3]; first compound 0.2 µM) | relative viability ([3]; first compound 0.6325 µM) | relative viability ([3]; first compound 2 µM) |
| --- | --- | --- | --- | --- | --- | --- | --- | --- | --- | --- | --- | --- | --- | --- | --- | --- | --- | --- | --- | --- |
| HCC-78 | 0.502 | 0.546 | 0.6 | 0.608 | 0.348 | 0.205 | 0.154 | 0.185 | 0.152 | 0.212 | 0.335 | 0.26 | 0.326 | 0.337 | 0.372 | 0.692 | 0.71 | 0.589 | 0.778 | 0.758 |
| HCC-366 | 0.29 | 0.278 | 0.0805 | 0.178 | 0.24 | 0.09 | 0.138 | 0.102 | 0.1 | 0.0818 | 0.351 | 0.387 | 0.579 | 0.472 | 0.398 | 0.945 | 0.994 | 1.13 | 1.07 | 0.986 |
| HCC-827 | 0.202 | 0.187 | – | 0.246 | 0.215 | 0.949 | 0.986 | 0.959 | 0.666 | 0.627 | 0.835 | 0.916 | – | 0.96 | 0.978 | 0.956 | 1.02 | – | 1.03 | 0.986 |
| IA-LM | – | – | – | – | – | 0.142 | 0.091 | 0.073 | 0.0818 | 0.0673 | 0.732 | 0.724 | 0.668 | 0.615 | 0.521 | 1.05 | 0.833 | 0.731 | 0.749 | 0.541 |
| LCLC-103H | 0.864 | 0.758 | 0.73 | 0.741 | 0.786 | 0.641 | 0.547 | 0.451 | 0.458 | 0.406 | 1.11 | 1.13 | 1.05 | 1.13 | 1.07 | – | – | – | – | – |
| NCI-H358 | 0.531 | 0.494 | 0.338 | 0.488 | 0.548 | 0.311 | 0.328 | 0.233 | 0.22 | 0.363 | 0.56 | 0.497 | 0.606 | 0.601 | 0.633 | – | – | – | – | – |
| NCI-H520 | – | – | – | – | – | 0.294 | 0.292 | 0.259 | 0.195 | 0.217 | 0.569 | 0.828 | 0.885 | 0.773 | 0.807 | 0.935 | 1.03 | 1.09 | 1.17 | 1.17 |
| NCI-H522 | 0.686 | 0.784 | 0.76 | 1.1 | 0.882 | – | – | – | – | – | – | – | – | – | – | – | – | – | – | – |
| NCI-H650 | 1.05 | 0.939 | – | 1.2 | 0.965 | 1.05 | 1.18 | 0.998 | 0.919 | 0.565 | 0.586 | 0.601 | – | 0.771 | 0.797 | – | – | – | – | – |
| NCI-H661 | – | – | – | – | – | 0.377 | 0.426 | 0.222 | 0.273 | 0.257 | 1.07 | 1.01 | 1.11 | 1.04 | 1.14 | – | – | – | – | – |
| NCI-H1299 | – | – | – | – | – | 0.475 | 0.47 | 0.32 | 0.0746 | 0.157 | 0.937 | 0.945 | 0.911 | 1.07 | 0.901 | 1.04 | 0.988 | 1.02 | 1.12 | 1.02 |
